Numbers after ± are expanded uncertainties.
Assay: xn = mol fraction of the nth substance listed
Details: 101.33 kPa, Liquid

C=Cc1ccccc1 [styrene] + CCCCCCCC
Details | mass density [kg/m3] | viscosity [mPa·s]
293.15 K, x1 = 0.1085 | 719.52 ± 2.9 | 0.537 ± 0.015
293.15 K, x1 = 0.2151 | 736.18 ± 2.8 | 0.537 ± 0.015
293.15 K, x1 = 0.3202 | 753.7 ± 2.6 | 0.541 ± 0.015
293.15 K, x1 = 0.4223 | 772.01 ± 2.5 | 0.551 ± 0.015
293.15 K, x1 = 0.523 | 791.51 ± 2.3 | 0.565 ± 0.015
293.15 K, x1 = 0.622 | 812.07 ± 2.2 | 0.593 ± 0.016
293.15 K, x1 = 0.7189 | 833.64 ± 2 | 0.619 ± 0.017
293.15 K, x1 = 0.8145 | 856.59 ± 1.8 | 0.649 ± 0.017
293.15 K, x1 = 0.9081 | 880.84 ± 1.6 | 0.694 ± 0.018
293.15 K, x1 = 1 | 906.29 ± 1.4 | 0.749 ± 0.019
298.15 K, x1 = 0.1085 | 715.45 ± 3 | 0.502 ± 0.014
298.15 K, x1 = 0.2151 | 732.06 ± 2.8 | 0.508 ± 0.014
298.15 K, x1 = 0.3202 | 749.53 ± 2.7 | 0.51 ± 0.014
298.15 K, x1 = 0.4223 | 767.81 ± 2.5 | 0.518 ± 0.015
298.15 K, x1 = 0.523 | 787.27 ± 2.4 | 0.533 ± 0.015
298.15 K, x1 = 0.622 | 807.78 ± 2.2 | 0.56 ± 0.015
298.15 K, x1 = 0.7189 | 829.3 ± 2 | 0.576 ± 0.016
298.15 K, x1 = 0.8145 | 852.22 ± 1.9 | 0.608 ± 0.016
298.15 K, x1 = 0.9081 | 876.43 ± 1.7 | 0.647 ± 0.017
298.15 K, x1 = 1 | 901.86 ± 1.4 | 0.699 ± 0.018
303.15 K, x1 = 0.1085 | 711.38 ± 3 | 0.475 ± 0.014
303.15 K, x1 = 0.2151 | 727.94 ± 2.9 | 0.477 ± 0.014
303.15 K, x1 = 0.3202 | 745.38 ± 2.7 | 0.48 ± 0.014
303.15 K, x1 = 0.4223 | 763.63 ± 2.6 | 0.489 ± 0.014
303.15 K, x1 = 0.523 | 783.03 ± 2.4 | 0.503 ± 0.014
303.15 K, x1 = 0.622 | 803.5 ± 2.2 | 0.527 ± 0.015
303.15 K, x1 = 0.7189 | 824.98 ± 2.1 | 0.544 ± 0.015
303.15 K, x1 = 0.8145 | 847.87 ± 1.9 | 0.571 ± 0.016
303.15 K, x1 = 0.9081 | 872.03 ± 1.7 | 0.609 ± 0.016
303.15 K, x1 = 1 | 897.45 ± 1.5 | 0.654 ± 0.017
313.15 K, x1 = 0.1085 | 703.13 ± 3 | 0.423 ± 0.013
313.15 K, x1 = 0.2151 | 719.6 ± 2.9 | 0.427 ± 0.013
313.15 K, x1 = 0.3202 | 737 ± 2.8 | 0.431 ± 0.013
313.15 K, x1 = 0.4223 | 755.16 ± 2.6 | 0.439 ± 0.013
313.15 K, x1 = 0.523 | 774.46 ± 2.5 | 0.451 ± 0.013
313.15 K, x1 = 0.622 | 794.86 ± 2.3 | 0.48 ± 0.014
313.15 K, x1 = 0.7189 | 816.28 ± 2.1 | 0.486 ± 0.014
313.15 K, x1 = 0.8145 | 839.09 ± 1.9 | 0.511 ± 0.014
313.15 K, x1 = 0.9081 | 863.15 ± 1.8 | 0.541 ± 0.015
313.15 K, x1 = 1 | 888.53 ± 1.6 | 0.577 ± 0.016
323.15 K, x1 = 0.1085 | 694.84 ± 3.1 | 0.381 ± 0.012
323.15 K, x1 = 0.2151 | 711.23 ± 3 | 0.385 ± 0.012
323.15 K, x1 = 0.3202 | 728.58 ± 2.8 | 0.388 ± 0.012
323.15 K, x1 = 0.4223 | 746.66 ± 2.7 | 0.396 ± 0.012
323.15 K, x1 = 0.523 | 765.88 ± 2.5 | 0.406 ± 0.012
323.15 K, x1 = 0.622 | 786.22 ± 2.4 | 0.427 ± 0.013
323.15 K, x1 = 0.7189 | 807.56 ± 2.2 | 0.437 ± 0.013
323.15 K, x1 = 0.8145 | 830.31 ± 2 | 0.46 ± 0.013
323.15 K, x1 = 0.9081 | 854.31 ± 1.8 | 0.484 ± 0.014
323.15 K, x1 = 1 | 879.62 ± 1.6 | 0.513 ± 0.014
333.15 K, x1 = 0.1085 | 686.43 ± 3.2 | 0.351 ± 0.012
333.15 K, x1 = 0.2151 | 702.74 ± 3 | 0.351 ± 0.012
333.15 K, x1 = 0.3202 | 720.06 ± 2.9 | 0.352 ± 0.012
333.15 K, x1 = 0.4223 | 738.07 ± 2.8 | 0.359 ± 0.012
333.15 K, x1 = 0.523 | 757.21 ± 2.6 | 0.368 ± 0.012
333.15 K, x1 = 0.622 | 777.49 ± 2.5 | 0.387 ± 0.012
333.15 K, x1 = 0.7189 | 798.77 ± 2.3 | 0.395 ± 0.012
333.15 K, x1 = 0.8145 | 821.46 ± 2.1 | 0.413 ± 0.013
333.15 K, x1 = 0.9081 | 845.37 ± 1.9 | 0.438 ± 0.013
333.15 K, x1 = 1 | 870.64 ± 1.7 | 0.462 ± 0.013
343.15 K, x1 = 0.1085 | 677.99 ± 3.2 | 0.321 ± 0.011
343.15 K, x1 = 0.2151 | 694.24 ± 3.1 | 0.325 ± 0.011
343.15 K, x1 = 0.3202 | 711.51 ± 3 | 0.322 ± 0.011
343.15 K, x1 = 0.4223 | 729.46 ± 2.8 | 0.328 ± 0.011
343.15 K, x1 = 0.523 | 748.55 ± 2.7 | 0.337 ± 0.011
343.15 K, x1 = 0.622 | 768.75 ± 2.5 | 0.355 ± 0.012
343.15 K, x1 = 0.7189 | 789.97 ± 2.4 | 0.362 ± 0.012
343.15 K, x1 = 0.8145 | 812.63 ± 2.2 | 0.376 ± 0.012
343.15 K, x1 = 0.9081 | 836.5 ± 2 | 0.398 ± 0.012
343.15 K, x1 = 1 | 861.72 ± 1.8 | 0.419 ± 0.013
353.15 K, x1 = 0.1085 | 669.39 ± 3.3 | 0.293 ± 0.011
353.15 K, x1 = 0.2151 | 685.6 ± 3.2 | 0.295 ± 0.011
353.15 K, x1 = 0.3202 | 702.81 ± 3 | 0.295 ± 0.011
353.15 K, x1 = 0.4223 | 720.71 ± 2.9 | 0.301 ± 0.011
353.15 K, x1 = 0.523 | 739.76 ± 2.8 | 0.308 ± 0.011
353.15 K, x1 = 0.622 | 759.93 ± 2.6 | 0.322 ± 0.011
353.15 K, x1 = 0.7189 | 781.11 ± 2.4 | 0.333 ± 0.011
353.15 K, x1 = 0.8145 | 803.68 ± 2.2 | 0.349 ± 0.011
353.15 K, x1 = 0.9081 | 827.51 ± 2 | 0.362 ± 0.012
353.15 K, x1 = 1 | 852.68 ± 1.9 | 0.381 ± 0.012
363.15 K, x1 = 0.1085 | 660.98 ± 3.4 | 0.27 ± 0.01
363.15 K, x1 = 0.2151 | 677.15 ± 3.3 | 0.268 ± 0.01
363.15 K, x1 = 0.3202 | 694.32 ± 3.1 | 0.273 ± 0.01
363.15 K, x1 = 0.4223 | 712.19 ± 3 | 0.277 ± 0.01
363.15 K, x1 = 0.523 | 731.2 ± 2.8 | 0.285 ± 0.01
363.15 K, x1 = 0.622 | 751.34 ± 2.7 | 0.294 ± 0.011
363.15 K, x1 = 0.7189 | 772.48 ± 2.5 | 0.304 ± 0.011
363.15 K, x1 = 0.8145 | 795.04 ± 2.3 | 0.318 ± 0.011
363.15 K, x1 = 0.9081 | 818.82 ± 2.1 | 0.333 ± 0.011
363.15 K, x1 = 1 | 843.99 ± 1.9 | 0.349 ± 0.011

— the NIST ThermoML archive (doi:10.1021/je049572f)
